Positions count from the first letter of the chain named. Positions of bridges follow the written chain, without caps; N, C: chain ends. Residues, ends and D or L forms follow the SMILES beside them.
What was measured:
Test in all cases: cell-based
[1] = molecular target: T1, rKv4.2 (Rattus norvegicus, UniProt Q63881); conditions: whole-cell patch clamp, HEK293T; mean ± SEM, n = 3-8; SEM; read-out: IC50 on rKv4.2 WT
T1 construct: expressed in transfected cells; host or cells: HEK293T
T1 sequence (Q63881 1-630): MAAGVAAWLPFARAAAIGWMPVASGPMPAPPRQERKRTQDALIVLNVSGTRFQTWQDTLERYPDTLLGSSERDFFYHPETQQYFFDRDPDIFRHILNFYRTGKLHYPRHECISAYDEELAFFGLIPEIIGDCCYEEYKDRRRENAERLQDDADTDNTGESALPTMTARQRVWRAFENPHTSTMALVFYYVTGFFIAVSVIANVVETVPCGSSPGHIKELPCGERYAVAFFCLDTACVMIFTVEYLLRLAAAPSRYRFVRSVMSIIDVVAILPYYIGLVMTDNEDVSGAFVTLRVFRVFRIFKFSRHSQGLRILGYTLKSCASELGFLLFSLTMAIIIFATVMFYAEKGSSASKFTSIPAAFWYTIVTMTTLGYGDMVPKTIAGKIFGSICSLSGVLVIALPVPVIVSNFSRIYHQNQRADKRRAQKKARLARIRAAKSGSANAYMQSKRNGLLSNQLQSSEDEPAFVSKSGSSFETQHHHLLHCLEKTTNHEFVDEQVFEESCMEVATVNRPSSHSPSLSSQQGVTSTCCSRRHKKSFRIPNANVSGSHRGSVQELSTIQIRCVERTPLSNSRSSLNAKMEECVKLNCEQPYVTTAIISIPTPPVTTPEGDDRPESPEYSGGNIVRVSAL

[2] = molecular target: T2, rKv4.3 (Rattus norvegicus, UniProt Q62897); conditions: whole-cell patch clamp, HEK293T; held at -80 mV, step to 0 mV; mean ± S.E.M., n = 3-8; SEM
T2 construct: expressed in transfected cells; host or cells: HEK293T
T2 sequence (Q62897 1-655): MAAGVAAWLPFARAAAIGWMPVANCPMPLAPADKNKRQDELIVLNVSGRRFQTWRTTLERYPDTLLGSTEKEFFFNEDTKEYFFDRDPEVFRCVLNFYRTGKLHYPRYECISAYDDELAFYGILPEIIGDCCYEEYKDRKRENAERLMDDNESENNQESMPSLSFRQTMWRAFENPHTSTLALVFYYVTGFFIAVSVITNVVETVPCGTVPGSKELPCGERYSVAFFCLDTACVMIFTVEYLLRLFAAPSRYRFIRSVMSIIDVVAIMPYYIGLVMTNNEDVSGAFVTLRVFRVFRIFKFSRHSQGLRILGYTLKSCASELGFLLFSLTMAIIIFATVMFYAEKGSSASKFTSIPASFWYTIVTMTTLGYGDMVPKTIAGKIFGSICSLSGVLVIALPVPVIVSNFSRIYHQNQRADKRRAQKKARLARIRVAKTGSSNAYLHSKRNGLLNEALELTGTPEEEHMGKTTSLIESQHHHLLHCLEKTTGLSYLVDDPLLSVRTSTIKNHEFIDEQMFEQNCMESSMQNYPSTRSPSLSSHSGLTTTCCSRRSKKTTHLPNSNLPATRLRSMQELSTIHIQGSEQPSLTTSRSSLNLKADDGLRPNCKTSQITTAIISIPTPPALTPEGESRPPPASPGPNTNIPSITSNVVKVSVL

[3] = molecular target: T3, rKv4.2 N282A (Rattus norvegicus, UniProt Q63881, N282A); conditions: mean ± SEM
T3 construct: expressed in transfected cells; host or cells: HEK293T
T3 sequence (Q63881 1-630 N282A): T1 sequence (Q63881 1-630) with N282A

[4] = molecular target: T4, rKv4.2 E283K (Rattus norvegicus, UniProt Q63881, E283K); conditions: mean ± SEM
T4 construct: expressed in transfected cells; host or cells: HEK293T
T4 sequence (Q63881 1-630 E283K): T1 sequence (Q63881 1-630) with E283K

CC[C@H](C)[C@@H]1NC(=O)[C@@H]2CSSC[C@@H]3NC(=O)[C@H](C(C)C)NC(=O)[C@H](CC(C)C)NC(=O)[C@H](CC(N)=O)NC(=O)[C@@H]4CCCN4C(=O)[C@H](CCCNC(=N)N)NC(=O)[C@H](CSSC[C@H](NC(=O)[C@@H](N)CC(=O)O)C(=O)N[C@@H](CC(C)C)C(=O)NCC(=O)N[C@@H](C)C(=O)N[C@@H](Cc4ccccc4)C(=O)N[C@@H](CCCNC(=N)N)C(=O)N[C@@H](CCCCN)C(=O)N2)NC(=O)[C@H](CSSC[C@@H](C(=O)N[C@@H](CCCCN)C(=O)N[C@@H](Cc2ccc(O)cc2)C(=O)N[C@H](C(=O)N[C@@H](Cc2ccccc2)C(N)=O)C(C)C)NC(=O)[C@H](Cc2c[nH]c4ccccc24)NC(=O)[C@H](CCCNC(=N)N)NC(=O)[C@H](Cc2cnc[nH]2)NC(=O)[C@H](CC(C)C)NC(=O)[C@H](CCCNC(=N)N)NC(=O)[C@H](CO)NC3=O)NC(=O)[C@H](CCCCN)NC(=O)[C@H](CC(=O)O)NC(=O)[C@H](CC(N)=O)NC(=O)[C@H](CC(=O)O)NC(=O)[C@@H]2CCCN2C1=O [mGpTx1] (H-DCLGAFRKCIPDNDKCCRPNLVCSRLHRWCKYVF-NH2; disulfide 2-17, 9-23, 16-30)
IC50 [1]: 81 ± 16 nM
IC50 [2]: 56 ± 4.8 nM
IC50 [3]: 17 ± 5 nM
IC50 [4]: 646 ± 135 nM

From publication PMC11558128 (Advanced Science, 2024)
